Source: patent US20240050428A1 (Cullgen (Shanghai), Inc., priority 2020, published 2024)
Read-outs that look alike come from different tables or passages of the source.

Assays:
MOLM-13 cells = assay: Cell viability assay (CellTiter-Glo) in MOLM-13 cells, alone or with gilteritinib; format: cell-based; conditions: Homo sapiens, MOLM-13, 72 h, MOLM-13 cells, three days, CellTiter-Glo
MV4;11 cells = assay: Cell viability assay (CellTiter-Glo) in MV4;11 cells, alone or with gilteritinib; format: cell-based; conditions: Homo sapiens, MV4-11, 72 h, MV4;11 cells, three days, CellTiter-Glo, read-out: MV4
[1] = compound alone (without gilteritinib), read-out: MOLM-13 IC50
[2] = with gilteritinib 20 nM, read-out: MOLM-13 IC50 gilteritinib
[3] = compound alone (without gilteritinib), 11 IC50
[4] = with gilteritinib 10 nM, 11 IC50 gilteritinib
[5] = compound with gilteritinib 20 nM, read-out: MOLM-13 IC50 gilteritinib
[6] = compound with gilteritinib 10 nM, 11 IC50 gilteritinib

SMILES	IC50 (MOLM-13 cells; [1])	IC50 (MOLM-13 cells; [2])	IC50 (MV4;11 cells; [3])	IC50 (MV4;11 cells; [4])	IC50 (MOLM-13 cells; [5])	IC50 (MV4;11 cells; [6])
O=C1CCC(N2C(=O)c3ccc(NC[C@H]4C[C@H](n5cc(-c6ccc(N7CCNCC7)cn6)c(C6CC6)n5)C4)cc3C2=O)C(=O)N1 (stereo partly drawn) [GS-297, 5-(((trans-3-(3-Cyclopropyl-4-(5-(piperazin-1-yl)pyridin-2-yl)-1H-pyrazol-1-yl)cyclobutyl)methyl)amino)-2-(2,6-dioxopiperidin-3-yl)isoindoline-1,3-dione]	> 1000 nM	> 1000 nM	> 1000 nM	> 1000 nM		
O=C1CCC(N2C(=O)c3ccc(NCCNC(=O)N4CCC(n5cc(-c6cnc7ccccc7n6)cn5)CC4)cc3C2=O)C(=O)N1 (stereo not drawn) [GS-149, N-(2-((2-(2,6-dioxopiperidin-3-yl)-1,3-dioxoisoindolin-5-yl)amino)ethyl)-4-(4-(quinoxalin-2-yl)-1H-pyrazol-1-yl)piperidine-1-carboxamide]	> 1000 nM	100 to 1000 nM	> 1000 nM	100 to 1000 nM		
CN1CCC(c2ccc3ncc(-c4cnn([C@H]5C[C@H](CCCNc6ccc7c(c6)C(=O)N(C6CCC(=O)NC6=O)C7=O)C5)c4)nc3c2)CC1 (stereo partly drawn) [GS-224, 2-(2,6-Dioxopiperidin-3-yl)-5-((3-(trans-3-(4-(7-(1-methylpiperidin-4-yl)quinoxalin-2-yl)-1H-pyrazol-1-yl)cyclobutyl)propyl)amino)isoindoline-1,3-dione]	100 to 1000 nM	< 10 nM	100 to 1000 nM	10 to 100 nM		
O=C1CCC(N2C(=O)c3ccc(NC[C@H]4C[C@H](n5cc(-c6cc(F)ccn6)c(C6CC6)n5)C4)cc3C2=O)C(=O)N1 (stereo partly drawn) [GS-290, 5-(((trans-3-(3-Cyclopropyl-4-(4-fluoropyridin-2-yl)-1H-pyrazol-1-yl)cyclobutyl)methyl)amino)-2-(2,6-dioxopiperidin-3-yl)isoindoline-1,3-dione]	> 1000 nM	100 to 1000 nM	> 1000 nM	10 to 100 nM		
O=C1CCC(N2C(=O)c3ccc(NCCC[C@H]4C[C@H](n5cc(-c6cnc7ccc(N8CCNC9(CC9)C8)cc7n6)cn5)C4)cc3C2=O)C(=O)N1 (stereo partly drawn) [GS-220, 5-((3-(trans-3-(4-(7-(4,7-Diazaspiro[2.5]octan-7-yl)quinoxalin-2-yl)-1H-pyrazol-1-yl)cyclobutyl)propyl)amino)-2-(2,6-dioxopiperidin-3-yl)isoindoline-1,3-dione]	> 1000 nM	100 to 1000 nM	> 1000 nM	100 to 1000 nM		
CN1CCC(c2cn([C@H]3C[C@H](CNc4ccc5c(c4)C(=O)N(C4CCC(=O)NC4=O)C5=O)C3)nc2C2CC2)CC1 (stereo partly drawn) [GS-460, 5-(((trans-3-(3-cyclopropyl-4-(1-methylpiperidin-4-yl)-1H-pyrazol-1-yl)cyclobutyl)methyl)amino)-2-(2,6-dioxopiperidin-3-yl)isoindoline-1,3-dione]	> 1000 nM		> 1000 nM		> 1000 nM	> 1000 nM
O=C1CCC(N2C(=O)c3ccc(NCCC[C@H]4C[C@H](n5cc(-c6nccc(N7CCOCC7)n6)cn5)C4)cc3C2=O)C(=O)N1 (stereo partly drawn) [GS-240, 2-(2,6-Dioxopiperidin-3-yl)-5-((3-(trans-3-(4-(4-morpholinopyrimidin-2-yl)-1H-pyrazol-1-yl)cyclobutyl)propyl)amino)isoindoline-1,3-dione]	100 to 1000 nM	10 to 100 nM	10 to 100 nM	< 10 nM		
O=C1CCC(N2C(=O)c3ccc(NCCCCCCn4cc(-c5cnc6cccc(C7CCNCC7)c6n5)cn4)cc3C2=O)C(=O)N1 (stereo not drawn) [GS-393, 2-(2,6-Dioxopiperidin-3-yl)-5-((6-(4-(8-(piperidin-4-yl)quinoxalin-2-yl)-1H-pyrazol-1-yl)hexyl)amino)isoindoline-1,3-dione]	> 1000 nM	> 1000 nM	> 1000 nM	> 1000 nM		
O=C1CCC(N2C(=O)c3ccc(NC4CC(CCCn5cc(-c6cnc7ccccc7n6)cn5)C4)cc3C2=O)C(=O)N1 (stereo not drawn) [GS-556]	> 1000 nM		> 1000 nM		> 1000 nM	> 1000 nM
O=C1CCC(N2C(=O)c3ccc(NCCC[C@H]4C[C@H](n5cc(-c6ccccn6)cn5)C4)cc3C2=O)C(=O)N1 (stereo partly drawn) [GS-582, 2-(2,6-Dioxopiperidin-3-yl)-5-((3-(trans-3-(4-(pyridin-2-yl)-1H-pyrazol-1-yl)cyclobutyl)propyl)amino)isoindoline-1,3-dione]	> 1000 nM		100 to 1000 nM		10 to 100 nM	10 to 100 nM
CN(c1ccccn1)C1CCN(CC(=O)NCCNc2ccc3c(c2)C(=O)N(C2CCC(=O)NC2=O)C3=O)CC1 (stereo not drawn) [GS-321, N-(2-((2-(2,6-Dioxopiperidin-3-yl)-1,3-dioxoisoindolin-5-yl)amino)ethyl)-2-(4-(methyl(pyridin-2-yl)amino)piperidin-1-yl)acetamide]	> 1000 nM	100 to 1000 nM	> 1000 nM	> 1000 nM		
O=C1CCC(N2C(=O)c3ccc(NCCC[C@H]4C[C@H](n5cc(-c6nccc7ccncc67)c(C6CC6)n5)C4)cc3C2=O)C(=O)N1 (stereo partly drawn) [GS-630, 5-((3-(trans-3-(3-Cyclopropyl-4-(2,7-naphthyridin-1-yl)-1H-pyrazol-1-yl)cyclobutyl)propyl)amino)-2-(2,6-dioxopiperidin-3-yl)isoindoline-1,3-dione]	> 1000 nM		100 to 1000 nM		< 10 nM	< 10 nM
O=C1CCC(N2C(=O)c3ccc(NC[C@H]4C[C@H](n5cc(-c6cccc(NC7CCOCC7)n6)cn5)C4)cc3C2=O)C(=O)N1 (stereo partly drawn) [GS-218, 2-(2,6-Dioxopiperidin-3-yl)-5-(((trans-3-(4-(6-((tetrahydro-2H-pyran-4-yl)amino)pyridin-2-yl)-1H-pyrazol-1-yl)cyclobutyl)methyl)amino)isoindoline-1,3-dione]	100 to 1000 nM	10 to 100 nM	100 to 1000 nM	10 to 100 nM		

Further lines, results first:

IC50 (MOLM-13 cells; [1])	IC50 (MOLM-13 cells; [2])	IC50 (MV4;11 cells; [3])	IC50 (MV4;11 cells; [4])	IC50 (MOLM-13 cells; [5])	IC50 (MV4;11 cells; [6])	SMILES
10 to 100 nM	10 to 100 nM	100 to 1000 nM	10 to 100 nM			O=C1CCC(N2C(=O)c3ccc(NCCC[C@H]4C[C@H](n5cc(-c6cccc(C7CCNCC7)n6)cn5)C4)cc3C2=O)C(=O)N1 (stereo partly drawn) [GS-238, 2-(2,6-Dioxopiperidin-3-yl)-5-((3-(trans-3-(4-(6-(piperidin-4-yl)pyridin-2-yl)-1H-pyrazol-1-yl)cyclobutyl)propyl)amino)isoindoline-1,3-dione]
100 to 1000 nM		100 to 1000 nM		10 to 100 nM	< 10 nM	O=C1CCC(N2C(=O)c3ccc(NCCC[C@H]4C[C@@H](n5cc(-c6cnc7cc(C8CCNCC8)ccc7n6)cn5)C4)cc3C2=O)C(=O)N1 (stereo partly drawn) [GS-429, 2-(2,6-dioxopiperidin-3-yl)-5-((3-(cis-3-(4-(6-(piperidin-4-yl)quinoxalin-2-yl)-1H-pyrazol-1-yl)cyclobutyl)propyl)amino)isoindoline-1,3-dione]
10 to 100 nM		10 to 100 nM		< 10 nM	< 10 nM	C[C@H]1CN(c2ccc3ncc(-c4cnn([C@H]5C[C@H](CCCNc6ccc7c(c6)C(=O)N(C6CCC(=O)NC6=O)C7=O)C5)c4)nc3c2)CCN1C (stereo partly drawn) [GS-575, 5-((3-(trans-3-(4-(7-((S)-3,4-Dimethylpiperazin-1-yl)quinoxalin-2-yl)-1H-pyrazol-1-yl)cyclobutyl)propyl)amino)-2-(2,6-dioxopiperidin-3-yl)isoindoline-1,3-dione]
10 to 100 nM	< 10 nM	< 10 nM	< 10 nM			O=C1CCC(N2C(=O)c3ccc(NC[C@H]4C[C@H](n5cc(-c6ncccc6Cl)c(C6CC6)n5)C4)cc3C2=O)C(=O)N1 (stereo partly drawn) [GS-272, 5-(((trans-3-(4-(3-Chloropyridin-2-yl)-3-cyclopropyl-1H-pyrazol-1-yl)cyclobutyl)methyl)amino)-2-(2,6-dioxopiperidin-3-yl)isoindoline-1,3-dione]
< 10 nM	< 10 nM	< 10 nM	< 10 nM			Cc1nn([C@H]2C[C@@H](CCCNc3ccc4c(c3)C(=O)N(C3CCC(=O)NC3=O)C4=O)C2)cc1-c1cnc2ccc(N3CCOCC3)cc2n1 (stereo partly drawn) [GS-221, 2-(2,6-Dioxopiperidin-3-yl)-5-((3-(cis-3-(3-methyl-4-(7-morpholinoquinoxalin-2-yl)-1H-pyrazol-1-yl)cyclobutyl)propyl)amino)isoindoline-1,3-dione]
10 to 100 nM	< 10 nM	10 to 100 nM	< 10 nM			O=C1CCC(N2Cc3c(Nc4cccc(Nc5cccc(N6CCC(n7cc(-c8cnc9ccccc9n8)cn7)CC6)c5)n4)cccc3C2=O)C(=O)N1 (stereo not drawn) [GS-090, 3-(1-Oxo-4-((6-((3-(4-(4-(quinoxalin-2-yl)-1H-pyrazol-1-yl)piperidin-1-yl)phenyl)amino)pyridin-2-yl)amino)isoindolin-2-yl)piperidine-2,6-dione]
10 to 100 nM	< 10 nM	10 to 100 nM	< 10 nM			O=C1CCC(N2C(=O)c3ccc(NCCC[C@H]4C[C@H](n5cc(-c6cnc7ccc(OC8CCNCC8)cc7n6)c(C6CC6)n5)C4)cc3C2=O)C(=O)N1 (stereo partly drawn) [GS-229, 5-((3-(trans-3-(3-Cyclopropyl-4-(7-(piperidin-4-yloxy)quinoxalin-2-yl)-1H-pyrazol-1-yl)cyclobutyl)propyl)amino)-2-(2,6-dioxopiperidin-3-yl)isoindoline-1,3-dione]
< 10 nM		> 1000 nM		100 to 1000 nM	100 to 1000 nM	O=C1CCC(N2C(=O)c3ccc(NC[C@H]4C[C@H](n5nccc5C5CC5)C4)cc3C2=O)C(=O)N1 (stereo partly drawn) [GS-590, 5-(((trans-3-(5-cyclopropyl-1H-pyrazol-1-yl)cyclobutyl)methyl)amino)-2-(2,6-dioxopiperidin-3-yl)isoindoline-1,3-dione]
